Reference: patent US10077261B2, “Imidazolin-5-one derivative useful as FASN inhibitors for the treatment of cancer” (Janssen Pharmaceutica NV, priority 2012, dated 2018)

Key:
[1] = molecular target: T1, hFASN enzyme (full length) (Homo sapiens, UniProt P49327); test: Fatty Acid Synthase (FASN) inhibition scintillation proximity assay; type: biochemical; conditions: for inhibition at 10 µM: read-out: Human FASN % inhibition @ 10 μM, 10 μM test compound; for IC50: read-out: Human FASN pIC50 (converted)
T1 construct: 10 μL hFASN enzyme (full length, 300 ng, purified in house); made in house
T1 sequence (P49327 whole entry): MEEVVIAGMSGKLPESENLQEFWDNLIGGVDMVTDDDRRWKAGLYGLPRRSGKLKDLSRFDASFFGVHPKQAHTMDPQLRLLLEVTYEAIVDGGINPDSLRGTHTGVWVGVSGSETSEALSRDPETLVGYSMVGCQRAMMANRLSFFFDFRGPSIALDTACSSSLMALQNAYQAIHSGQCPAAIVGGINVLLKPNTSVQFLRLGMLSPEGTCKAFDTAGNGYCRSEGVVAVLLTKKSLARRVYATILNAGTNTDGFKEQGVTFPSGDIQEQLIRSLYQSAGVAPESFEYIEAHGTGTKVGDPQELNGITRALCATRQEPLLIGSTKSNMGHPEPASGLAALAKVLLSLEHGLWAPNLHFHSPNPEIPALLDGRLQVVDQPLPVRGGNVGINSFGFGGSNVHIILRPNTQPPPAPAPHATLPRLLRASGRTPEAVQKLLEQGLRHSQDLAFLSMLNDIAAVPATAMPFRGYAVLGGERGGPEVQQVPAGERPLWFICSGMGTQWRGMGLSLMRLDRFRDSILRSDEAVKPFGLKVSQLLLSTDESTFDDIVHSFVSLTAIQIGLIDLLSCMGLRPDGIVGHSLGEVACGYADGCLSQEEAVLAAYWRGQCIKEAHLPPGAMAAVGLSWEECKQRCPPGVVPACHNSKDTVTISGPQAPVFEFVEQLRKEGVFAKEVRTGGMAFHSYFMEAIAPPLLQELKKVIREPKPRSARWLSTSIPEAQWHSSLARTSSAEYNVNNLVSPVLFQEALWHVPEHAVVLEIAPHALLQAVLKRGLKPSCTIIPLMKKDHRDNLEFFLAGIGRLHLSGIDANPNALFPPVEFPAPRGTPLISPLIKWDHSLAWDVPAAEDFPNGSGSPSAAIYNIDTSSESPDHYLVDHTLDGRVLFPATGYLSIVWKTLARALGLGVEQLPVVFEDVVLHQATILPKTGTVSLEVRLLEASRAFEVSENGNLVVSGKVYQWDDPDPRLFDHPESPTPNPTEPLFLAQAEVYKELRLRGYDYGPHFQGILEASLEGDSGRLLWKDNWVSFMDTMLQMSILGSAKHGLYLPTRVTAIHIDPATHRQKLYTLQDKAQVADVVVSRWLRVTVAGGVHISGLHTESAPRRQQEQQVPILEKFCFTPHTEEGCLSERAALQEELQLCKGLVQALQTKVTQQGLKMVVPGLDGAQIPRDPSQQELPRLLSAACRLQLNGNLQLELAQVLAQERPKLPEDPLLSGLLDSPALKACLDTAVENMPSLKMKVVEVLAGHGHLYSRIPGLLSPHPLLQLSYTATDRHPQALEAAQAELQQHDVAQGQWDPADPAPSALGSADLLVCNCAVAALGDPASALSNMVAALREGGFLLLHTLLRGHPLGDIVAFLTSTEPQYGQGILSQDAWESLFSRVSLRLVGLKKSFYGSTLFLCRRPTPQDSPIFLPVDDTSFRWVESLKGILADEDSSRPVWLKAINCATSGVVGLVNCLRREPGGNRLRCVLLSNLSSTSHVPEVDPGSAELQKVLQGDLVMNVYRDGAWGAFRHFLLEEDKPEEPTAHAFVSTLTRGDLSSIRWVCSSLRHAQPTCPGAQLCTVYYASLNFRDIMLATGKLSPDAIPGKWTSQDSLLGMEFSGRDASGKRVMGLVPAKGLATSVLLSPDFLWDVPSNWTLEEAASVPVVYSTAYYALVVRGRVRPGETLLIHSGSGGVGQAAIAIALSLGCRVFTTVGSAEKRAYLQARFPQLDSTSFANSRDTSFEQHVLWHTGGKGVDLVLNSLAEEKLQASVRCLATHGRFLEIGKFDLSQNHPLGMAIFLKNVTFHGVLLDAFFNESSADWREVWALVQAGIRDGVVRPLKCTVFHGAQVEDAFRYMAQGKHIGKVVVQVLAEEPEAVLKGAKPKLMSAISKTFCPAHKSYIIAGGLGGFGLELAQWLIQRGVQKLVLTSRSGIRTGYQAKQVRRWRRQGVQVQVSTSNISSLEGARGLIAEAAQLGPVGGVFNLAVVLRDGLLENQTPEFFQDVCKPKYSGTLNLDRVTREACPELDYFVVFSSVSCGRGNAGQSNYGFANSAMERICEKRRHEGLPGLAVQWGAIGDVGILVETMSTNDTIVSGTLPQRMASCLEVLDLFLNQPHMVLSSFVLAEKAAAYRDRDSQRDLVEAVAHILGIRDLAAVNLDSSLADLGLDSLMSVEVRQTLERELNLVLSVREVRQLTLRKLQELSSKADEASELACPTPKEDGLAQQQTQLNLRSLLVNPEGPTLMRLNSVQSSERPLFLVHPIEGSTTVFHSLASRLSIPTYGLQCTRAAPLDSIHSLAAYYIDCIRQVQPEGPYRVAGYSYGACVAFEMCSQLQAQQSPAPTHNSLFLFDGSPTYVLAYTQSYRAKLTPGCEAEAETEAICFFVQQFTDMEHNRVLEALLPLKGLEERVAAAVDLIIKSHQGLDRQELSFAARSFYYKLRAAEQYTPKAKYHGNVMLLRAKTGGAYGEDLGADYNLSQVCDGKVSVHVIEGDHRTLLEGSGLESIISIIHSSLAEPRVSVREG
Method in brief: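 Full-length in-house purified enzyme (300 ng) was tested in 100 mM KH2PO4 pH 7.5, 1 mM DTT with ³H-acetyl-CoA and malonyl-CoA as substrates; compounds ranged 0.01–30 μM. Reactions were stopped with streptavidin imaging beads, read by LEADseeker at 610 nm, and fitted to a 4-parameter logistic curve.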

A2780 ovarian cells [2] = test: A2780 ovarian cell proliferation assay in lipid reduced medium, with palmitate (MTT); type: cell-based; conditions: Homo sapiens, A2780, 96 h; read-out: pIC50 A2780 Ovarian Cell, With Palmitate (converted)
Method in brief: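 Seeded cells were switched next day to lipid-reduced serum, exposed to compound and 25 μM palmitate complexed with fatty-acid-free BSA, and incubated 96 h. Proliferation was then determined by MTT absorbance at 544 nm, with a best-fit curve of signal against concentration.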

A2780 ovarian cells [3] = test: A2780 ovarian cell proliferation assay in lipid reduced medium, without palmitate (MTT); type: cell-based; conditions: Homo sapiens, A2780, 96 h; read-out: pIC50 A2780 Ovarian Cell, Without Palmitate (converted)
[4] = system: LNCaP-Vancouver prostate cells; test: In vitro LNCaP Vancouver prostate cell proliferation assay in lipid reduced medium; type: cell-based; conditions: read-out: pIC50 LNCaP_Vancouver prostate cell (converted)
Description: LNCaP-Vancouver prostate cells were obtained from the Vancouver Prostate Cancer Centre. Cells were maintained in RPMI-1640, 10% Fetal Calf Serum (FCS, Hyclone), 2 mM glutamine and 50 μg/ml Gentamicin.
For the proliferation experiment 1500 LNCaP-Vancouver cells per well were seeded in a 384-well black with clear bottom plate (costar 3712BC) in 40 μl RPMI-1640, 10% Lipid reduced serum (LRS, Hyclone), 50 μg/ml Gentamicin and 2 mM Glutamine and incubated at 37° C., 5% CO2. The next day 10 μl of test compound/DMSO diluted in medium was added (3E-5M, 1E-5M, 3E-6M, 1E-6M, 3E-7M, 1E-7M, 3E-8M, 1E-8M final concentration). Compounds were tested in duplicate. After 96 h incubation at 37° C., 5% CO2 25 μl ATP-glow mix was added. The plate was incubated for 30 min at 37° C. and luminescence was measured with the Envision.
Analysis: Determination of pIC50 Values
pIC50 values were calculated as follows.
where mLC and mHC are the means of the low control wells and high control wells on the plate, after manual exclusion of outliers. The relation between the % Controlmin values and concentration was fitted to a 4-parameter logistic curve using a non-linear least squares regression method to determine the pIC50 value. Outlying data points were excluded manually to get a correct fit. The pIC50 corresponds to −log 10(IC50), if the IC50 is expressed in molar units (http://www.ncbi.nlm.nih.gov/books/NBK91994). The IC50 parameter was always determined by non-linear regression, but one or more of the other parameters may have been held fixed on a relevant input value, such as 0 for the bottom values.
For dose response curves with FASN inhibitors in LNCaP-Vancouver or PC-3M-Luc-C6 cells the curves bottom out around 30 to 40% of the control value. A standard fit PL2, forcing the lower bound to this level was used.
Representative compounds of the present invention were tested according to the procedure as described in Biological Example 4a and 4b above, with results as listed in Table 9, below.

[5] = molecular target: Fatty Acid Synthase Keto-reductase Domain (FASN KR) (Homo sapiens, UniProt P49327); test: Fatty Acid Synthase keto-reductase domain (FASN KR) inhibition, NADPH oxidation at 340 nm
Fatty Acid Synthase Keto-reductase Domain (FASN KR), sequence (P49327 whole entry, the tested form may be a part): as the sequence (P49327 whole entry) above
Description: After 20 minutes incubation at room temperature the plate was measured again (T2).
The decrease in absorbance was calculated as (Absorbance before incubation T1)−(Absorbance following incubation T2).
A plot of Controlmin versus test compound concentration was fitted to a 4-parameter logistic curve using a non-linear least squares regression method.

| SMILES | inhibition at 10 µM [1] [%] | IC50 [1] [nM] | IC50 (A2780 ovarian cells [2]) [nM] | IC50 (A2780 ovarian cells [3]) [nM] | IC50 [4] [nM] | IC50 [5] [nM] |
| --- | --- | --- | --- | --- | --- | --- |
| O=C(C1CC1)N1CC[C@@H](CN2C(=O)C3(CC3)N=C2c2ccc(-c3ccc4cnc(F)cc4c3)cc2)C1 [compound 220, (R)-6-((1-(cyclopropanecarbonyl)pyrrolidin-3-yl)methyl)-5-(4-(3-fluoroisoquinolin-6-yl)phenyl)-4,6-diazaspiro[2.4]hept-4-en-7-one] | 99 | 91.2 | > 10000 | 339 | 1070 | 263 |
| Cc1cc(C2=NC3(CC3)C(=O)N2C[C@@H]2CCN(C(=O)C3CC3)C2)ccc1-c1ccc2sccc2c1 [compound 230, (R)-5-(4-(benzo[b]thiophen-5-yl)-3-methylphenyl)-6-((1-(cyclopropanecarbonyl)pyrrolidin-3-yl)methyl)-4,6-diazaspiro[2.4]hept-4-en-7-one] | 107 | 40.7 | > 10000 | 550 | 1230 | 105 |
| O=C(C1CC1)N1CC[C@@H](CN2C(=O)C3(CC3)N=C2c2ccc(-c3ccc4occc4c3)c(F)c2)C1 [compound 232, (R)-5-(4-(benzofuran-5-yl)-3-fluorophenyl)-6-((1-(cyclopropanecarbonyl)pyrrolidin-3-yl)methyl)-4,6-diazaspiro[2.4]hept-4-en-7-one] | 105 | 83.2 | > 6170 | 2400 | 1820 | 324 |
| O=C(C1CC1)N1CC[C@@H](CN2C(=O)C3(CC3)N=C2c2ccc(-c3ccc4ncccc4c3)cc2F)C1 [compound 248, (R)-6-((1-(cyclopropanecarbonyl)pyrrolidin-3-yl)methyl)-5-(2-fluoro-4-(quinolin-6-yl)phenyl)-4,6-diazaspiro[2.4]hept-4-en-7-one] | 99 | 69.2 | > 10000 | 513 | 479 | 148 |
| O=C(C1CC1)N1CC[C@@H](CN2C(=O)C3(CC3)N=C2c2ccc(-c3ccc4cc(F)ccc4c3)cc2)C1 [compound 311, (R)-6-((1-(cyclopropanecarbonyl)pyrrolidin-3-yl)methyl)-5-(4-(6-fluoronaphthalen-2-yl)phenyl)-4,6-diazaspiro[2.4]hept-4-en-7-one] |  |  | > 10000 | ~229 | 302 |  |
| Cc1ccc2cc(-c3ccc(C4=NC5(CC5)C(=O)N4CC4CN(C(=O)C5CC5)C4)cc3)ccc2n1 [compound 510, 6-{[1-(Cyclopropylcarbonyl)azetidin-3-yl]methyl}-5-[4-(2-methylquinolin-6-yl)phenyl]-4,6-diazaspiro[2.4]hept-4-en-7-one] | 80 | 955 |  |  | 4790 | 5370 |
| O=C([C@H]1CCCO1)N1CC[C@@H](CN2C(=O)C3(CCOCC3)N=C2c2ccc(-c3ccc4occc4c3)cc2)C1 [compound 669, 2-[4-(1-Benzofuran-5-yl)phenyl]-3-({(3R)-1-[(2R)-tetrahydro-furan-2-ylcarbonyl]pyrrolidin-3-yl}methyl)-8-oxa-1,3-diazaspiro[4.5]dec-1-en-4-one] |  |  |  |  | 2820 |  |
| Cn1ncc2cc(-c3ccc(C4=NC5(CCOCC5)C(=O)N4C[C@@H]4CCN(C(=O)C5CC5)C4)cc3)ccc21 [compound 672, 3-{[(3R)-1-(Cyclopropylcarbonyl)pyrrolidin-3-yl]methyl}-2-[4-(1-methyl-1H-indazol-5-yl)phenyl]-8-oxa-1,3-diazaspiro[4.5]dec-1-en-4-one] |  |  | > 10000 | ~407 | 2630 |  |
| O=C(C1CC1)N1CC[C@@H](CN2C(=O)C3(CCOC3)N=C2c2ccc(-c3ccc4cccnc4c3)cc2)C1 (stereo partly drawn) [compound 680, 3-{[(3R)-1-(Cyclopropylcarbonyl)pyrrolidin-3-yl]methyl}-2-(4-quinolin-7-ylphenyl)-7-oxa-1,3-diazaspiro[4.4]non-1-en-4-one] | 98 | 79.4 |  |  | 339 | 224 |
| O=C(C1CC1)N1CC[C@@H](CN2C(=O)C3(CCOC3)N=C2c2ccc(-c3ccc4occc4c3)cc2)C1 (stereo partly drawn) [compound 686, 2-[4-(1-Benzofuran-5-yl)phenyl]-3-{[(3R)-1-(cyclopropylcarbonyl)pyrrolidin-3-yl]methyl}-7-oxa-1,3-diazaspiro[4.4]non-1-en-4-one] | 98 | 182 |  |  | 3800 | 676 |
| Cn1ncc2cc(-c3ccc(C4=NC5(CCOC5)C(=O)N4C[C@@H]4CCN(C(=O)C5CC5)C4)cc3)ccc21 (stereo partly drawn) [compound 690, 3-{[(3R)-1-(Cyclopropylcarbonyl)pyrrolidin-3-yl]methyl}-2-[4-(1-methyl-1H-indazol-5-yl)phenyl]-7-oxa-1,3-diazaspiro[4.4]non-1-en-4-one] |  |  | > 10000 | 708 | 2340 |  |
| COC(=O)N1CC2(C1)N=C(c1ccc(-c3ccc(-c4cnn(C)c4)cc3)cc1)N(C[C@@H]1CCN(C(=O)C3CC3)C1)C2=O [compound 725, Methyl 7-{[(3R)-1-(cyclopropylcarbonyl)pyrrolidin-3-yl]methyl}-6-[4′-(1-methyl-1H-pyrazol-4-yl)biphenyl-4-yl]-8-oxo-2,5,7-triazaspiro[3.4]oct-5-ene-2-carboxylate] | 93 | 245 |  |  | 1660 | 646 |
| O=C(C1CC1)N1CC[C@@H](CN2C(=O)C3(CCCC3)N=C2c2ccc(-c3ccc4[nH]ccc4c3)cc2F)C1 [compound 845, (R)-3-((1-(cyclopropanecarbonyl)pyrrolidin-3-yl)methyl)-2-(2-fluoro-4-(1H-dinol-5-yl)phenyl)-1,3-diazaspiro[4.4]non-1-en-4-one] | 106 | 20 | > 10000 | 11 |  | 25.1 |
| O=C(C1CC1)N1CC[C@@H](CN2C(=O)C3(CCCC3)N=C2c2ccc(-c3ccc4cc[nH]c4c3)cc2F)C1 [compound 874, (R)-3-((1-(cyclopropanecarbonyl)pyrrolidin-3-yl)methyl)-2-(2-fluoro-4-(1H-indol-6-yl)phenyl)-1,3-diazaspiro[4.4]non-1-en-4-one] | 108 | 25.1 | > 10000 | 20.9 |  | 40.7 |
| O=C(N1CC[C@@H](CN2C(=O)C3(CCCC3)N=C2c2ccc(-c3ccc4occc4c3)cc2)C1)C1(O)CC1 [compound 878, (R)-2-(4-(benzofuran-5-yl)phenyl)-3-((1-(1-hydroxycyclopropanecarbonyl)pyrrolidin-3-yl)methyl)-1,3-diazaspiro[4.4]non-1-en-4-one] | 113 | 36.3 | > 10000 | ~93.3 |  | 60.3 |
| Cc1nnc(-c2ccc(-c3ccc(C4=NC5(CCCC5)C(=O)N4C[C@@H]4CCN(C(=O)C5CC5)C4)c(C)c3)cc2)o1 [compound 882, (R)-3-((1-(cyclopropanecarbonyl)pyrrolidin-3-yl)methyl)-2-(3-methyl-4′-(5-methyl-1,3,4-oxadiazol-2-yl)-[1,1′-biphenyl]-4-yl)-1,3-diazaspiro[4.4]non-1-en-4-one] | 107 | 135 | > 10000 | ~89.1 |  | 295 |
| Cc1cc(-c2ccc3c(c2)OCO3)ccc1C1=NC2(CCCC2)C(=O)N1C[C@@H]1CCN(C(=O)C2CC2)C1 [compound 883, (R)-2-(4-(benzo[d][1,3]dioxol-5-yl)-2-methylphenyl)-3-((1-(cyclopropanecarbonyl)pyrrolidin-3-yl)methyl)-1,3-diazaspiro[4.4]non-1-en-4-one] | 100 | 269 | > 10000 | ~2450 |  | 1050 |
